Reference: patent US9833497B2, “Human originated EGF domain proteins and use of the same” (CHENGDU SOURCEBIO LIMITED-LIABILITY COMPANY, priority 2013, dated 2017)

Experiments:
Type in all cases: cell-based
[1] = test system: Proteus vulgaris; test: MIC against Gram-negative bacteria: Proteus vulgaris; details: 5×10^5 CFU/mL; for MIC against P. vulgaris: Proteus vulgaris
In short: (§1)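 MIC = lowest concentration of recombinant protein showing no growth. Test proteins: purified human-derived EGF domain proteins, two-fold dilution series, three wells per concentration; inoculum 5×10^5 CFU/mL in LB; incubation 37° C with shaking at 175 rpm.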

[2] = test system: Moraxella catarrhalis; test: MIC against Gram-negative bacteria: Moraxella catarrhalis; details: 5×10^5 CFU/mL; for MIC against M. catarrhalis: Moraxella catarrhalis
In short: as §1

[3] = test system: Enterobacter cloacae; test: MIC against Gram-negative bacteria: Enterobacter cloacae; details: 5×10^5 CFU/mL; for MIC against E. cloacae: Enterobacter cloacae
In short: as §1

[4] = test system: E. coli BL21; test: MIC against Gram-negative bacteria: E. coli BL21; details: 5×10^5 CFU/mL
In short: as §1

[5] = test system: Citrobacter diversus; test: MIC against Gram-negative bacteria: Citrobacter diversus; details: 5×10^5 CFU/mL; for MIC against C. diversus: Citrobacter diversus
In short: as §1

[6] = test system: Proteus mirabilis; test: MIC against Gram-negative bacteria: Proteus mirabilis; details: 5×10^5 CFU/mL; for MIC against P. mirabilis: Proteus mirabilis
In short: as §1

[7] = test system: Pseudomonas aeruginosa; test: MIC against Gram-negative bacteria: Pseudomonas aeruginosa; details: 5×10^5 CFU/mL; for MIC against P. aeruginosa: Pseudomonas aeruginosa
In short: as §1

[8] = test system: Aeromonas hydrophila; test: MIC against Gram-negative bacteria: Aeromonas hydrophila; details: 5×10^5 CFU/mL; for MIC against A. hydrophila: Aeromonas hydrophila
In short: as §1

[9] = test system: Klebsiella pneumonia; test: MIC against Gram-negative bacteria: Klebsiella pneumonia; details: 5×10^5 CFU/mL; for MIC against K. pneumonia: Klebsiella pneumonia
In short: as §1

[10] = test system: Serratia marcescens; test: MIC against Gram-negative bacteria: Serratia marcescens; details: 5×10^5 CFU/mL; for MIC against S. marcescens: Serratia marcescens
In short: as §1

[11] = test system: E. coli DH5α; test: Antibacterial activity: MIC and growth curve against E. coli DH5α in 96-well plate; details: minimal inhibitory concentration against E. coli DH5α; 96-well plate, 5×10^5 CFU/mL, 37° C., judged after 8 h
In short: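 MIC taken as lowest protein level with no bacterial growth, tracked by A600 every 30 min during 37 °C, 175 rpm culture. Two-fold protein series 50-12.5 μg/mL final, triplicate wells, against 5×10^5 CFU/mL of LB-washed mid-log cells.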

[12] = 10 h cultivation at 37° C., two-fold serial dilution

PRT873 (CECYGHSNRCSYIDFLNVVTCVSCKHNTRGQHCQHCRLGYYRNGSAELDDENVCIE; listed as Homo sapiens)
50 µg/mL: MIC (μg/mL) P. vulgaris ([1]; 10 h cultivation at 37° C.) | MIC (μg/mL) E. coli BL21 ([4]; 10 h cultivation at 37° C.) | MIC (μg/mL) A. hydrophila ([8]; 10 h cultivation at 37° C.)
25 µg/mL: MIC (μg/mL) E. cloacae ([3]; 10 h cultivation at 37° C.) | MIC (μg/mL) C. diversus ([5]; 10 h cultivation at 37° C.) | MIC (μg/mL) P. mirabilis ([6]; 10 h cultivation at 37° C.) | MIC (μg/mL) K. pneumonia ([9]; 10 h cultivation at 37° C.)
12.5 µg/mL: MIC (μg/mL) M. catarrhalis ([2]; 10 h cultivation at 37° C.) | MIC (μg/mL) P. aeruginosa ([7]; 10 h cultivation at 37° C.) | MIC (μg/mL) S. marcescens ([10]; 10 h cultivation at 37° C.) | MIC [11]

PRT642 (DVNECDELNNRMSLCKNAKCINTDGSYKCLCLPGYVPSDKPNYCT; listed as Homo sapiens)
12.5 µg/mL: MIC M. catarrhalis ([2]; 96-well plate, 37° C., 10 h) | MIC K. pneumonia ([9]; 96-well plate, 37° C., 10 h) | MIC [11]
50 µg/mL: MIC P. vulgaris ([1]; 96-well plate, 37° C., 10 h) | MIC E. coli BL21 ([4]; 96-well plate, 37° C., 10 h) | MIC A. hydrophila ([8]; 96-well plate, 37° C., 10 h)
25 µg/mL: MIC E. cloacae ([3]; 96-well plate, 37° C., 10 h) | MIC C. diversus ([5]; 96-well plate, 37° C., 10 h) | MIC P. mirabilis ([6]; 96-well plate, 37° C., 10 h) | MIC P. aeruginosa ([7]; 96-well plate, 37° C., 10 h) | MIC S. marcescens ([10]; 96-well plate, 37° C., 10 h)

PRT1267 (CNHGNGGCQHSCDDTADGPECSCHPQYKMHTDGRSC; listed as Homo sapiens)
25 µg/mL: MIC against P. vulgaris ([1]; 96-well plate, 37° C., 10 h) | MIC against M. catarrhalis ([2]; 96-well plate, 37° C., 10 h) | MIC against E. coli BL21 ([4]; 96-well plate, 37° C., 10 h) | MIC against K. pneumonia ([9]; 96-well plate, 37° C., 10 h)
50 µg/mL: MIC against P. mirabilis ([6]; 96-well plate, 37° C., 10 h) | MIC against P. aeruginosa ([7]; 96-well plate, 37° C., 10 h) | MIC against A. hydrophila ([8]; 96-well plate, 37° C., 10 h)
12.5 µg/mL: MIC against E. cloacae ([3]; 96-well plate, 37° C., 10 h) | MIC against C. diversus ([5]; 96-well plate, 37° C., 10 h) | MIC against S. marcescens ([10]; 96-well plate, 37° C., 10 h) | MIC [11]

PRT159 (EYDACQRKPCQNNASCIDANEKQDGSNFTCVCLPGYTGELCQ; listed as Homo sapiens)
50 µg/mL: MIC (μg/mL) E. coli BL21 ([4]; 10 h cultivation at 37° C.)
25 µg/mL: MIC (μg/mL) P. mirabilis ([6]; 10 h cultivation at 37° C.) | MIC (μg/mL) P. aeruginosa ([7]; 10 h cultivation at 37° C.) | MIC (μg/mL) S. marcescens ([10]; 10 h cultivation at 37° C.) | MIC [11]
12.5 µg/mL: MIC (μg/mL) P. vulgaris ([1]; 10 h cultivation at 37° C.) | MIC (μg/mL) M. catarrhalis ([2]; 10 h cultivation at 37° C.) | MIC (μg/mL) E. cloacae ([3]; 10 h cultivation at 37° C.) | MIC (μg/mL) C. diversus ([5]; 10 h cultivation at 37° C.) | MIC (μg/mL) A. hydrophila ([8]; 10 h cultivation at 37° C.) | MIC (μg/mL) K. pneumonia ([9]; 10 h cultivation at 37° C.)

PRT1191 (AEHACTSNPCANGGSCHEVPSGFECHCPSGWSGPTCA; listed as Homo sapiens)
50 µg/mL: MIC M. catarrhalis [2, 12] | MIC P. aeruginosa [7, 12] | MIC S. marcescens [10, 12]
25 µg/mL: MIC E. cloacae [3, 12] | MIC E. coli BL21 [4, 12] | MIC P. mirabilis [6, 12] | MIC A. hydrophila [8, 12] | MIC K. pneumonia [9, 12]
12.5 µg/mL: MIC P. vulgaris [1, 12] | MIC C. diversus [5, 12] | MIC [11]

PRT1484 (DTDECLGTPCQQRCKNSIGSYKCSCRTGFHLHGNRHSCV; listed as Homo sapiens)
50 µg/mL: MIC against P. mirabilis ([6]; 10 h cultivation at 37° C.) | MIC against P. aeruginosa ([7]; 10 h cultivation at 37° C.) | MIC against A. hydrophila ([8]; 10 h cultivation at 37° C.) | MIC against S. marcescens ([10]; 10 h cultivation at 37° C.) | MIC [11]
12.5 µg/mL: MIC against P. vulgaris ([1]; 10 h cultivation at 37° C.) | MIC against M. catarrhalis ([2]; 10 h cultivation at 37° C.) | MIC against E. coli BL21 ([4]; 10 h cultivation at 37° C.) | MIC against K. pneumonia ([9]; 10 h cultivation at 37° C.)
25 µg/mL: MIC against E. cloacae ([3]; 10 h cultivation at 37° C.) | MIC against C. diversus ([5]; 10 h cultivation at 37° C.)
